Reference: patent US8465736B2, “Glutadon” (priority 2006, dated 2013)
Entries after “also recorded” stand apart in the source; their conditions may differ.

How the values were obtained:
advanced carcinomas = assay: Phase I/IIa clinical study (GlutaDON): stabilization/progression by RECIST criteria; assay type: in vivo, human; details: for Progression (share of patients) / Stabilization (share of patients): Total
Procedure: In a phase I/IIa clinical study (GlutaDON®), altogether 58 patients with advanced carcinomas were treated with the combination of the two active ingredients described herein. The patients received PEG-PGA in a dosage of 120 IU/m^2 twice a week by the intravenous route, the infusion lasting 15 minutes. The administration of PEG-PGA was followed after 2-4 hours by the intravenous application of DON in a concentration of 5-185 mg/m^2. The duration of the infusion was again 15 minutes. […] According to the internationally accepted RECIST criteria, the term “stabilization” means that the increase in the measurable tumor diameters was less than 20% six weeks or more after the screening, i.e. after the staging of the tumor before the first treatment. According to the internationally accepted RECIST criteria, the term “progression” means that a growth of more than 20%, or a subjective progression, or new lesions were observed within six weeks.

[1] = GlutaDON study: side effects (nausea and vomiting); assay type: in vivo, human; details: DON up to 185 mg/m^2 in combination with PEG-PGA 120 IU/m^2 twice a week
Procedure: In a phase I/IIa clinical study (GlutaDON®), altogether 58 patients with advanced carcinomas were treated with the combination of the two active ingredients described herein. The patients received PEG-PGA in a dosage of 120 IU/m^2 twice a week by the intravenous route, the infusion lasting 15 minutes. The administration of PEG-PGA was followed after 2-4 hours by the intravenous application of DON in a concentration of 5-185 mg/m^2. The duration of the infusion was again 15 minutes.

[2] = dosages of up to 600 mg/m^2 twice a week; cited from earlier work
[3] = Colon, high DON dosage 105-185 mg/m^2, with PEG-PGA 120 IU/m^2
[4] = Colon, low DON dosage 5-80 mg/m^2, with PEG-PGA 120 IU/m^2
[5] = Kidney, high DON dosage 105-185 mg/m^2 i.v., after PEG-PGA 120 IU/m^2 twice a week
[6] = Kidney, low DON dosage 5-80 mg/m^2 i.v., after PEG-PGA 120 IU/m^2 twice a week
[7] = Other indications, high DON dosage 105-185 mg/m^2, with PEG-PGA 120 IU/m^2
[8] = Other indications, low DON dosage 5-80 mg/m^2, with PEG-PGA 120 IU/m^2
[9] = Ovary, high DON dosage 105-185 mg/m^2, with PEG-PGA 120 IU/m^2
[10] = Ovary, low DON dosage 5-80 mg/m^2, with PEG-PGA 120 IU/m^2
[11] = Prostate, high DON dosage 105-185 mg/m^2, with PEG-PGA 120 IU/m^2
[12] = Prostate, low DON dosage 5-80 mg/m^2, with PEG-PGA 120 IU/m^2
[13] = Total (10 patients), high DON dosage 105-185 mg/m^2, with PEG-PGA 120 IU/m^2
[14] = Total (36 patients), low DON dosage 5-80 mg/m^2, with PEG-PGA 120 IU/m^2
[15] = high DON dosage 105-185 mg/m^2, with PEG-PGA 120 IU/m^2
[16] = low DON dosage 5-80 mg/m^2, with PEG-PGA 120 IU/m^2

## [N-]=[N+]=CC(=O)CC[C@H](N)C(=O)O [DON, 6-diazo-5-oxo-L-norleucine]
Advanced carcinomas; [3]
  Progression (number of patients): 1 patients
  Stabilization (number of patients): 0 patients
Advanced carcinomas; [4]
  Progression (number of patients): 4 patients
  Stabilization (number of patients): 2 patients
Advanced carcinomas; [5]
  Progression (number of patients): 0 patients
  Stabilization (number of patients): 4 patients
Advanced carcinomas; [6]
  Progression (number of patients): 4 patients
  Stabilization (number of patients): 5 patients
Advanced carcinomas; [7]
  Progression (number of patients): 1 patients
  Stabilization (number of patients): 0 patients
Advanced carcinomas; [8]
  Progression (number of patients): 10 patients
  Stabilization (number of patients): 4 patients
Advanced carcinomas; [9]
  Progression (number of patients): 0 patients
  Stabilization (number of patients): 1 patients
Advanced carcinomas; [10]
  Progression (number of patients): 4 patients
  Stabilization (number of patients): 1 patients
Advanced carcinomas; [11]
  Progression (number of patients): 1 patients
  Stabilization (number of patients): 2 patients
Advanced carcinomas; [12]
  Progression (number of patients): 1 patients
  Stabilization (number of patients): 1 patients
Advanced carcinomas; [13]
  Progression (number of patients): 3 patients
  Stabilization (number of patients): 7 patients
Advanced carcinomas; [14]
  Progression (number of patients): 23 patients
  Stabilization (number of patients): 13 patients
Advanced carcinomas; [15]
  Progression (share of patients): 30%
  Stabilization (share of patients): 70%
Advanced carcinomas; [16]
  Progression (share of patients): 64%
  Stabilization (share of patients): 36%
[1]
  Nausea and vomiting as dose-limiting side effects: without nausea and vomiting being found to be dosage-limiting side effects; also recorded: not dose-limiting
[2]
  Action of DON used by itself: very modest action
  Nausea and vomiting with DON used by itself: dosage-limiting side effects
